# Experimental data taken from patent publication US20170107254A1, “Modified Antimicrobial Peptides” (priority 2014, published 2017).
# Where two headings read alike, the source gives them in different places. No end group written: not given here.
# How the values were obtained:
# [1] = test system: A. fumigatus (AM2002/066 and NPCF2939); assay: Antifungal activity (CLSI M38-A2 micro-broth dilution) and MFC; assay type: cell-based; conditions: for A. fumigatus MIC100 / MIC: Table 5, average of two strains, 48 h at 30° C.; for MIC: read-out: A. fumigatus MIC100
# Description: (§1) The fungal strains A. fumigatus (AM2002/066 and NPCF2939), A. flavus (01-1554 and NPCF7117) and A. niger (01-1494 and NCPF2022) were obtained from the National Collection of Pathogenic Fungi (NPCF) or American Type Culture Collection (ATCC). Fungal strains were grown on SAB slopes for 72 h at 30° C. before experimental use. C. albicans strain SC5314 was purchased from ATCC and grown overnight on SAB slopes at 30° C. before experimental use.
# (§2) The antifungal activity of peptides was examined using the conditions of the Clinical Laboratory Standards Institute document M38-A2. Peptide antifungal activity was assessed by micro-broth dilutions with a serial two-fold dilution of test compound prepared in a 96 well plate from 0 to maximum concentration to be tested (here 2× concentration required, 250 μg/ml). Fungal suspensions were prepared by flooding slopes with PBS and filtering through gauze to collect spores. The suspension was then adjusted to a density of 2×10^4 colony-forming units/ml in 2× culture medium (RPMI 1640, 0.165 M MOPS, pH 7.4 with L-glutamine, without NaHCO3 medium) and an equal volume was added to the different peptide concentrations in the 96 well plate. Plates where incubated at 30° C. for 48 h before growth inhibition was determined by measuring absorbance at 530 nm (Biotek Powerwave). Antifungal activity was defined by the minimum inhibitory concentration (MIC), the concentration at which no growth was observed.
# (§3) For examining the minimum fungicidal concentration (MFC) 10 μl of fungal and peptide suspension was transferred from every well to the corresponding well in a sterile 96-well plate containing fresh culture medium (RPMI-1640, 0.165 M MOPS, pH 7.4 with L-glutamine, without NaHCO3 medium). Aspergillus was then incubated for a further 48 h after which absorbance was measured at 530 nm. MFC was defined as the concentration at which no growth was observed.
# [2] = test system: A. flavus (01-1554 and NPCF7117); assay: as above; assay type: cell-based; conditions: Table 5, average of two strains, 48 h at 30° C.; for MIC: Aspergillus flavus, read-out: A. flavus MIC100
# Description: as §1, §2, §3
# [3] = test system: A. niger (01-1494 and NCPF2022); assay: as above; assay type: cell-based; conditions: Table 5, average of two strains, 48 h at 30° C.; for MIC: Aspergillus niger, NCPF2022, read-out: A. niger MIC100
# Description: as §1, §2, §3
# A549 cells = conditions: lipid alone at 200 μg/ml
# Description: The cell lines A549 (Human Lung Adenocarcinoma Epithelial Cell Line) and HepG2 (Human Hepatocellular Carcinoma Cell Line) were purchased from ATCC. A549 cells were maintained in F-12K medium (Gibco) containing 10% foetal bovine serum (Life Technologies) and 1% penicillin/streptomycin (Life Technologies) and HepG2 cells were maintained in Dulbecco's modified eagles medium (Gibco) containing 10% foetal bovine serum (Life Technologies), penicillin/streptomycin (Life Technologies) and 1% 0.01 mg/ml human transferrin (Sigma). Both were incubated at 37° C. with 5% CO2 until cells reached >80% confluence before splitting or experimental use.
# Before exposure to peptides, the plate was incubated at 37° C. with 5% CO2 overnight to allow cells adhere. […] Medium was removed from the plate containing cells and peptide dilutions were transferred to cells and incubated for a further 3 h at 37° C. with 5% CO2. Cytotoxicity was determined by LIVE/DEAD® Viability/Cytotoxicity kit (Invitrogen Life Technologies), a working solution of 2 μM calcein AM and 4 μM EthD-1 and in conjunction Alamar Blue at a final concentration of 10% was added to the wells. Cells without peptides were the negative control and 1% DMSO was the positive control. Cells were incubated for 3 h again at 37° C. with 5% CO2.
# [4] = test system: human red blood cells (hRBC); assay: Haemolysis of human red blood cells; conditions: lipid alone at 200 μg/ml
# Description: Peptides were tested for their haemolytic activity against human red blood cells (hRBC). Fresh hRBCs collected in BD Vacutainer® tubes with EDTA were rinsed 3 times with PBS (pH 7.4) by centrifugation for 10 min at 800 g and resuspended, 1 in 10 diluted with PBS. […] Release of haemoglobin was then calculated by transferring supernatant to a flat bottomed 96-well plate and measuring absorbance at 578 nm. hRBCs with no peptides added and H2O provided the controls.
# C. albicans SC5314 [5] = assay type: cell-based; conditions: RPMI-1640, 48 h data
# Description: The purity of the peptide was taken into account during the preparation to ensure preparation of the correct concentration. Peptides solutions were stored at −20° C. until required.
# The antifungal activity of the peptides was based on that of the Clinical Laboratory Standards Institute document M27-A3. A serial two-fold dilution of peptide was prepared across a 96-well microtitre plate with concentration ranging from 2 mg/ml to […]; upon addition of the cells these concentrations shall be halved, with additional wells lacking peptide as a 0 mg/ml control. An addition control lacking culture was also prepared.
# To prepare the fungal inoculum, an overnight culture of C. albicans SC5314 was grown at 30° C. on Sabouraud dextrose agar. Cells were washed from the surface of the agar and diluted to the equivalent of the 0.5 MacFarland standard. A further 1:50 dilution of the cells into 2×RPMI-1640 was carried out, and an equal volume was added to the different peptide concentrations in the microtitre plate. To measure the metabolic activity of the cells, 10 μl of a 0.25% solution of resazurin was added to each well. Plates were incubated in the dark at 30° C. for 48 h with growth inhibition determined by measuring absorbance at 530 nm/590 nm at 0 h, 24 h and 48 h on a BioTek PoweWave. Antifungal activity was defined by the minimum inhibitory concentration (MIC), the concentration at which no growth was observed.
# C. albicans SC5314 [6] = assay type: cell-based; conditions: RPMI-1640 and 25% plasma, 24 h data
# Description: A peptide “master” plate was prepared by the addition of 200 μl of the 20 mg/ml stock to column 11 on a microtitre plate. One hundred microliters of sterile water was added to the remaining wells. Serial two-fold dilutions of the peptides were carried out across the plate from right to left. From the “master” plate, 25 μl of peptides were added to corresponding wells on three “working” plates. To each well on the “working” plate, 25 μl human plasma was added, resulting in the halving of both the concentration of the peptide in the working plate and human plasma. Column 12 contained the controls.
# An overnight culture of C. albicans SC5314 was grown at 30° C. on Sabouraud dextrose agar and the cells were washed from the surface of the agar and diluted to the equivalent of the 0.5 MacFarland standard. A further 1:50 dilution of the cells into 2×RPMI-1640 was carried out, and 50 μl of the cell suspension was added to each well of the plate. […] Plates were incubated at 30° C. for 48 h with growth inhibition determined by measuring absorbance at 530 nm at 0 h, 24 h and 48 h on a BioTek PoweWave. Antifungal activity was defined by the minimum inhibitory concentration (MIC), the concentration at which no growth was observed.
# C. albicans SC5314 [7] = assay type: cell-based
# Description: 1×RPMI-1640 Buffered with Citrate Phosphate Buffer
# Citrate phosphate buffer was prepared by mixing 0.1 M citric acid and 0.2 M dibasic sodium phosphate dodecahydrate in the proportions indicated in the Table 2 and the volume adjusted to 90 ml with dH2O.
# pH buffered medium was prepared by dissolving 1.04 g RPMI-1640 premix powder in 10 ml citrate phosphate buffer. The volume was then adjusted to 40 ml with dH2O and the pH adjusted by addition of the acid or base. The volume was adjusted to 50 ml with dH2O. The medium was then filter sterilized by vacuum filtration through a 0.2 μm filter and stored at 4° C. and kept for up to 2 weeks.
# The pH of RPMI-1640 was altered, using citrate phosphate buffer, to reflect the more acidic pH environment in the oral cavity. NP319 and NP377 were active against C. albicans SC5314 from pH 5.5-7.0 (Table 2). For all AMPs tested the optimum pH for activity was pH 5.5. NP377 maintained activity at 2 μg/ml from pH 5.5-7 with reduced activity at pH 5.
# C. albicans SC5314 [8] = test system: C. albicans SC5314
# Description: (B) Efficacy of AMPs of same length was evaluated by MIC after 24 incubation at 37° C. Data is expressed as percentage of the positive growth controls. Data is the mean±standard error of the mean (n=3).
# The efficacy of AMPs was determined versus C. albicans SC5314 before evaluating the effect of pH on activity.
# [9] = neutral pH, no saliva, 24 h incubation at 37° C.
compound,measurement,setting,value
"CC(=O)O [Acetic (C2), Acetic]",inhibition at 200 µg/mL,"[1]; Aspergillus fumigatus, lipid alone at 200 μg/ml, 48 h, read-out: % Growth Inhibition of A. fumigatus at 48 h",5%
C[C@@H]1[C@H](O)[C@@H](C)/C=C/C=C/C=C/C=C/C=C/C=C/C=C/[C@H](O[C@@H]2O[C@H](C)[C@@H](O)[C@H](N)[C@@H]2O)C[C@@H]2O[C@](O)(C[C@@H](O)C[C@@H](O)[C@H](O)CC[C@@H](O)C[C@@H](O)CC(=O)O[C@H]1C)C[C@H](O)[C@H]2C(=O)O [Amphotericin B],A. flavus MIC100,[2],1.5 µg/mL
same,A. fumigatus MIC100,[1],1 µg/mL
same,A. niger MIC100,[3],<1 µg/mL
"CCCC(=O)O [Butanoic (C4), Butanoic]",% Growth Inhibition of A. fumigatus at 48 h,"[1]; lipid alone at 200 μg/ml, 48 h",35%
same,% A549 Cell Death at 3 h,A549 cells,0%
same,% Haemolytic Activity at 3 h,[4],30%
CC[C@H](C)C[C@H](C)CCCCCCCCC(=O)N[C@H]1C[C@@H](O)[C@@H](NCCN)NC(=O)[C@@H]2[C@@H](O)CCN2C(=O)[C@H]([C@H](O)CCN)NC(=O)[C@H]([C@H](O)[C@@H](O)c2ccc(O)cc2)NC(=O)[C@@H]2C[C@@H](O)CN2C(=O)[C@H]([C@@H](C)O)NC1=O [Caspofungin],MIC,[2],128 µg/mL
same,MIC,[1]; Aspergillus fumigatus,64 µg/mL
same,MIC,[3],16 µg/mL
"CCCCCCCCCC(=O)O [Decanoic (C10), Decanoic]",% Growth Inhibition of A. fumigatus at 48 h,"[1]; lipid alone at 200 μg/ml, 48 h",20%
same,% A549 Cell Death at 3 h,A549 cells,25%
same,% Haemolytic Activity at 3 h,[4],10%
"CCCCCCCCCCCC(=O)O [Dodecanoic (C12), Dodecanoic]",% Growth Inhibition of A. fumigatus at 48 h,"[1]; lipid alone at 200 μg/ml, 48 h",45%
same,% A549 Cell Death at 3 h,A549 cells,20%
same,% Haemolytic Activity at 3 h,[4],20%
OC(Cn1cncn1)(Cn1cncn1)c1ccc(F)cc1F [Fluconazole],MIC,[2],64 µg/mL
same,MIC,[1]; Aspergillus fumigatus,64 µg/mL
same,MIC,[3],64 µg/mL
"CCCCCC(=O)O [Hexanoic (C6), Hexanoic]",% Growth Inhibition of A. fumigatus at 48 h,"[1]; lipid alone at 200 μg/ml, 48 h",50%
same,% A549 Cell Death at 3 h,A549 cells,0%
same,% Haemolytic Activity at 3 h,[4],40%
CCC(C)n1ncn(-c2ccc(N3CCN(c4ccc(OCC5COC(Cn6cncn6)(c6ccc(Cl)cc6Cl)O5)cc4)CC3)cc2)c1=O (stereo not shown) [Itraconcazole],A. flavus MIC100,[2],1 µg/mL
same,A. fumigatus MIC100,[1],<1 µg/mL
same,A. niger MIC100,[3],<1 µg/mL
N=C(N)NCCC[C@H](NC(=O)[C@H](CCCNC(=N)N)NC(=O)[C@H](CCCNC(=N)N)NC(=O)[C@H](CCCNC(=N)N)NC(=O)[C@H](CCCNC(=N)N)NC(=O)[C@H](CCCNC(=N)N)NC(=O)[C@H](CCCNC(=N)N)NC(=O)[C@H](CCCNC(=N)N)NC(=O)[C@H](CCCNC(=N)N)NC(=O)[C@H](CCCNC(=N)N)NC(=O)[C@H](CCCNC(=N)N)NC(=O)[C@H](CCCNC(=N)N)NC(=O)[C@H](CCCNC(=N)N)NC(=O)[C@@H](N)CCCNC(=N)N)C(=O)O [Novamycin],MIC50,C. albicans SC5314 [5],<2 µg/mL
same,MIC80,C. albicans SC5314 [5],2 µg/mL
same,MIC100,C. albicans SC5314 [5],4 µg/mL
same,MIC50,C. albicans SC5314 [6],78.1 µg/mL
same,MIC80,C. albicans SC5314 [6],156.25 to 312.5 µg/mL
same,MIC100,C. albicans SC5314 [6],312.5 µg/mL
C[C@@H]1[C@H](O)[C@@H](C)/C=C/C=C/CC/C=C/C=C/C=C/C=C/C(O[C@H]2O[C@H](C)[C@@H](O)[C@H](N)[C@@H]2O)CC2O[C@](O)(CC(O)C(O)CCC(O)CC(O)CC(O)CC(=O)O[C@H]1C)CC(O)C2C(=O)O (stereo partly shown) [Nystatin],MIC50,C. albicans SC5314 [7]; pH 4.5,2 µg/mL
same,MIC100,C. albicans SC5314 [7]; pH 4.5,2 µg/mL
same,MIC50,C. albicans SC5314 [7]; pH 5,1 µg/mL
same,MIC100,C. albicans SC5314 [7]; pH 5,1 µg/mL
same,MIC50,C. albicans SC5314 [7]; pH 5.5,1 µg/mL
same,MIC100,C. albicans SC5314 [7]; pH 5.5,1 µg/mL
same,MIC50,C. albicans SC5314 [7]; pH 6,1 µg/mL
same,MIC100,C. albicans SC5314 [7]; pH 6,1 µg/mL
same,MIC50,C. albicans SC5314 [7]; pH 6.5,1 µg/mL
same,MIC100,C. albicans SC5314 [7]; pH 6.5,1 µg/mL
same,MIC50,C. albicans SC5314 [7]; pH 7,1 µg/mL
same,MIC100,C. albicans SC5314 [7]; pH 7,1 µg/mL
"CCCCCCCC(=O)O [Octanoic (C8), Octanoic]",% Growth Inhibition of A. fumigatus at 48 h,"[1]; lipid alone at 200 μg/ml, 48 h",60%
same,% A549 Cell Death at 3 h,A549 cells,5%
"CCCCCCCCCCCCCCCC(=O)O [Palmitic (C16), Palmitic]",% Growth Inhibition of A. fumigatus at 48 h,"[1]; lipid alone at 200 μg/ml, 48 h",0%
same,% A549 Cell Death at 3 h,A549 cells,10%
"CCCCCCCCCCCCCC(=O)O [Tetradecanoic (C14), Tetradecanoic]",% Growth Inhibition of A. fumigatus at 48 h,"[1]; lipid alone at 200 μg/ml, 48 h",15%
same,% A549 Cell Death at 3 h,A549 cells,0%
same,% Haemolytic Activity at 3 h,[4],20%
Palm-dRdRdRdRdRdRdRdRdRdRdRdR-CONH [NP375],MIC100,C. albicans SC5314 [8]; [9],16 µg/mL
"Poly-L-Arg, HCl salt [NP121]",MIC80,C. albicans SC5314 [8]; [9],64 µg/mL
RRRFRFRFRFRRR [NP466],MIC90,"C. albicans SC5314 [8]; SC5314, 24 h",32 µg/mL
same,MIC100,C. albicans SC5314 [8]; [9],did not achieve a MIC100
dHdHdRdRdRdRdRdRdRdRdRdRdRdRdR-CONH [NP376],MIC100,C. albicans SC5314 [8]; [9],2 µg/mL
